From PMC12281475, “Mediator Kinase Inhibitor Selectivity and Activity in Colorectal Cancer” (ACS Chemical Biology, 2025)

Tests used:
[1] = system: MED14 phosphorylation in SW620 cells; assay: CDK-substrate motif immunoprecipitation and MED14 immunoblot, SW620; format: cell-based, human; details: parent SW620, 350 nM, 6 h
Excerpt: 3 Mediator kinase knockout alters STAT1^SER727phosphorylation and promoter activity in SW620 human colon cancer cells. (A) Capillary immunoassay of Mediator kinase module expression and pSTAT1^SER727 biomarker in multiple independent knockout clones. GAPDH was included as a loading control. […] Controls included IgG alone for background, DMEM for untreated cells, and DMSO as a vehicle control. MED14 was detected as a doublet pair of bands by immunoblotting of cell lysates (middle gel panel). […] The lower panel includes vinculin as a loading control. (C) Promoter reporter results from CDK8 knockout clone 1 relative to parent SW620 cells. Data represent mean ± s.e.m (n = 3). The black horizontal line indicates unchanged reporter activity, while the horizontal red line highlights reporters with altered activity ±1.5-fold. […]
Cell monolayers were washed with PBS twice and lysed using a modified RIPA buffer, mRIPA (50 mM TRIS-HCl pH 7.4, 1% NP-40 substitute, 0.5% NaDOC, 150 mM NaCl, 1 mM EDTA, 0.02% SDS and 1:100 dilution of proteinase and phosphatase inhibitor cocktail, (#5872, Cell Signaling Technology) with overnight freezing at -80 °C and sonication of the cell pellet. Lysates were clarified by centrifugation and supernatants collected and protein concentration determined by a bicinchoninic acid (BCA) assay. […]

COLO205 cells = assay: Promoter reporter panel (transient luciferase constructs), COLO205; format: cell-based, human; details: COLO205, 350 nM, 6 h
Method: Transcription factor activity was assayed in cell lines using 45 different plasmid reporter constructs encoding firefly luciferase under the control of a basal promoter element downstream of specific transcriptional response elements (Qiagen, Germany; Supporting Table S1). Firefly luciferase under the control of basal promoter element alone was used to establish the baseline signal and cotransfection of a construct expressing renilla luciferase from a CMV-promoter was used as a transfection control. Cells were reverse-transfected with reporter plasmids, compounds were added 42 h post transfection and reporter activity quantified following 6 h continuous exposure.
Transcription factor promoter reporter assays were carried out to define signalling pathways and biological processes modulated by CDK8/19 ligands. A panel of plasmid reporter constructs encoding firefly luciferase under the control of a basal promoter element with specific transcriptional response elements were used (Qiagen, Germany;
Firefly luciferase under the control of the minimal promoter element (TATA box) alone was used to establish the base-line signal and a construct expressing renilla luciferase from a CMV-promoter was used as a transfection control. COLO205 human colon cancer cells or SW620 parental and CRISPR KO cells were reverse-transfected with the panel of plasmid reporters in a 96 well plate format. The reporter mixes were prepared at 40:1 ratio of fLUC to rLUC plasmid at a final concentration of
100 ng/ml. For each well 1 ul plasmid was complexed with 1 ul Lipofectamine 2000
(Thermo Fisher Scientific, UK) in 50 ul OptiMEM (Thermo Fisher Scientific, UK) media
for 20 mins at room temperature. Cells were trypsinised and 50 ul of cells at 2e5
cells/ml in supplemented DMEM were added to the 50 ul of plasmid:lipofectamine
mixture in OptiMEM in a well of a 96-well white opaque flat bottom microtiter plate.
fLUC and rLUC were measured by the addition of 100 ul dual glo luciferase reagent
(Promega, USA). Reporter activity was quantified in untreated cells 48 hours post- […]

SW620 cells = assay: Tumour spheroid growth assay (CellTitre-Glo), SW620 parent and knockout clones; format: cell-based, human; details: SW620 spheroids
[2] = Plasma total concentration of compound (LC-MS/MS); format: in vivo, mice; details: 6 h after final dose
Method: for 20 mins at room temperature. […]
and body weights recorded. […]
quantification and pharmacodynamic biomarker analyses. All samples were stored […]
Plasma homogenates were extracted with 3 equivalent volumes of methanol containing olomoucine (500 nM) as an internal standard. Extracts were quantified for […]
ranging from 2 nM to 50 000 nM) with 4 quality control samples (25, 250,2500, and 7500 nM in duplicate) included at the beginning and the end of the analytical run.
Plasma homogenates were measured by LC−MS/MS on a Waters TQS following a separation on a Waters Acquity BEH C18 column (50 mm × 2.1 mm; 1.7 μm) with conditions of 0.1% formic acid (mobile phase A) and methanol (mobile phase B). The column was equilibrated at initial condition of 95% A and 5% B, linear gradient over 3 min to 100% B, held over 1 min, followed by linear gradient back to 5% B over 0.1 min, […]
mode by multiple reaction monitoring, 412.17 > 376.40at 33 eV for compound 109, […]
Phospho-proteome analyses
Adherent COLO205 cells were washed with PBS and cells lysed using urea lysis buffer (9 M Urea, 20 mM HEPES, pH 8.0, 1 mM beta-glycerophosphate, 1 mM sodium vanadate, 2.5 mM sodium pyrophosphate) and stored at -80 °C prior to analysis. The supernatants were reduced with 100 mM DTT for 30 minutes at 55 °C, followed by alkylation with 50 mM iodoacetimide for 15 minutes at ambient temperature in the dark. […]

SMILES | MED14 upper band (immunoblot of cell lysates) [1] | reduction of activity of TCF/LEF, SP1 and PAX6 reporter constructs (COLO205 cells) [fold] | WNT-regulated TCF/LEF reporter construct activity (COLO205 cells; p adj < 0.001) | spheroid growth of CDK8 and double knockout clones (SW620 cells) | spheroid growth of CDK19 knockout clones (SW620 cells) | plasma total concentrations, parent versus knockout clones ([2]; 14-20 days, 42 mg/kg p.o qd 5/7 days, exception CDK8-KO-cl2 (p < 0.05)) | plasma levels in parent versus individual knockout clones ([2]; 3 days, 42 mg/kg p.o. qd)
Cn1cc(-c2ccc(-c3cncc(Cl)c3N3CCC4(CCNC4=O)CC3)cc2)cn1 [CCT251545] | reduced by active compound treatment | > 1.5 | most significant decrease | insensitive to treatment | growth inhibition similar to the parental line | – | –
Cn1ncc2cc(-c3cnc(N)c(Cl)c3N3CCC4(CCNC4=O)CC3)ccc21 [CCT251921] | – | – | – | – | – | no significant differences | no significant difference
